Laboratory results published in ChEMBL document CHEMBL4673260, “Pyridine alkaloids with activity in the central nervous system” (Bioorg Med Chem, 2020).

Columns and labels:
[1] = target: Neuronal acetylcholine receptor; alpha4/beta2 (Rattus norvegicus, UniProt P09483+P12390); assay: Displacement of [3H]epibatidine from alpha4beta2 nAChR in rat frontal cortex membrane by scintillation counting method; assay type: cell membranes
Homo sapiens [2] = species: Homo sapiens; assay: Inhibition of human protein kinase A at 10 uM relative to control
[3] = target: Cysteinyl leukotriene receptor 1 (Homo sapiens) (UniProt Q9Y271); assay: Inhibition of human CYSLTR1 expressed in CHO-K1 cells at 10 uM relative to control; assay type: cell-based
Homo sapiens [4] = species: Homo sapiens; assay: Inhibition of NOS (unknown origin) at 10 uM relative to control
[5] = target: 5-hydroxytryptamine receptor 7 (Homo sapiens) (UniProt P34969); assay: Inhibition of human 5HT-7 receptor at 10 uM relative to control
Homo sapiens [6] = species: Homo sapiens; assay: Inhibition of human 5HT-6 receptor at 10 uM relative to control
[7] = target: 5-hydroxytryptamine receptor 4 (Homo sapiens) (UniProt Q13639); assay: Inhibition of 5HT-4 (unknown origin) receptor at 10 uM relative to control
[8] = target: 5-hydroxytryptamine receptor 3A (Homo sapiens) (UniProt P46098); assay: Inhibition of 5HT-3 (unknown origin) receptor at 10 uM relative to control
[9] = target: 5-hydroxytryptamine receptor 2C (Homo sapiens) (UniProt P28335); assay: Inhibition of human 5HT-2C receptor at 10 uM relative to control
[10] = target: 5-hydroxytryptamine receptor 1A (Homo sapiens) (UniProt P08908); assay: Inhibition of human 5HT-1a receptor at 10 uM relative to control
[11] = target: Sodium-dependent serotonin transporter (Homo sapiens) (UniProt P31645); assay: Inhibition of human serotonin transporter expressed in HEK293 cells at 10 uM relative to control; assay type: cell-based
[12] = target: Mu-type opioid receptor (Homo sapiens) (UniProt P35372); assay: Inhibition of human Mu-type opioid receptor at 10 uM relative to control
Homo sapiens [13] = species: Homo sapiens; assay: Inhibition of nAChR (unknown origin) at 10 uM relative to control
[14] = target: Muscarinic acetylcholine receptor M5 (Homo sapiens) (UniProt P08912); assay: Inhibition of human muscarinic M5 receptor expressed in CHO-K1 cells at 10 uM relative to control; assay type: cell-based
[15] = target: Muscarinic acetylcholine receptor M4 (Homo sapiens) (UniProt P08173); assay: Inhibition of human muscarinic M4 receptor expressed in CHO-K1 cells at 10 uM relative to control; assay type: cell-based
[16] = target: Histamine H2 receptor (Homo sapiens) (UniProt P25021); assay: Inhibition of human histamine H2 receptor expressed in CHO-K1 cells at 10 uM relative to control; assay type: cell-based
Homo sapiens [17] = species: Homo sapiens; assay: Inhibition of Glutamate receptor ionotropic NMDA glycine,strychnine-sensitive site (unknown origin) at 10 uM relative to control
Homo sapiens [18] = species: Homo sapiens; assay: Inhibition of Glutamate receptor ionotropic AMPA site (unknown origin) at 10 uM relative to control
Homo sapiens [19] = species: Homo sapiens; assay: Inhibition of GABA-A agonist site (unknown origin) at 10 uM relative to control
[20] = target: Gamma-aminobutyric acid receptor subunit alpha-1 (Homo sapiens) (UniProt P14867); assay: Inhibition of GABA-A alpha1 BDZ site (unknown origin) at 10 uM relative to control
[21] = target: D(4) dopamine receptor (Homo sapiens) (UniProt P21917); assay: Inhibition of human dopamine D4.4 receptor expressed in CHO-K1 cells at 10 uM relative to control; assay type: cell-based
[22] = target: D(2) dopamine receptor (Homo sapiens) (UniProt P14416); assay: Inhibition of human dopamine D2S receptor expressed in CHO-K1 cells at 10 uM relative to control; assay type: cell-based
[23] = target: D(1A) dopamine receptor (Homo sapiens) (UniProt P21728); assay: Inhibition of human dopamine D1 receptor at 10 uM relative to control
[24] = target: Beta-2 adrenergic receptor (Homo sapiens) (UniProt P07550); assay: Inhibition of human adrenergic receptor beta2 expressed in CHO-K1 cells at 10 uM relative to control; assay type: cell-based
[25] = target: Alpha-2B adrenergic receptor (Homo sapiens) (UniProt P18089); assay: Inhibition of human adrenergic receptor alpha2B expressed in CHO-K1 cells at 10 uM relative to control; assay type: cell-based
[26] = target: Alpha-2A adrenergic receptor (Homo sapiens) (UniProt P08913); assay: Inhibition of human adrenergic receptor alpha2A expressed in CHO-K1 cells at 10 uM relative to control; assay type: cell-based
[27] = target: Alpha-1B adrenergic receptor (Homo sapiens) (UniProt P35368); assay: Inhibition of human adrenergic receptor alpha1B expressed in CHO-K1 cells at 10 uM relative to control; assay type: cell-based

Chain of Gamma-aminobutyric acid receptor subunit alpha-1 (Homo sapiens) (P14867 whole entry): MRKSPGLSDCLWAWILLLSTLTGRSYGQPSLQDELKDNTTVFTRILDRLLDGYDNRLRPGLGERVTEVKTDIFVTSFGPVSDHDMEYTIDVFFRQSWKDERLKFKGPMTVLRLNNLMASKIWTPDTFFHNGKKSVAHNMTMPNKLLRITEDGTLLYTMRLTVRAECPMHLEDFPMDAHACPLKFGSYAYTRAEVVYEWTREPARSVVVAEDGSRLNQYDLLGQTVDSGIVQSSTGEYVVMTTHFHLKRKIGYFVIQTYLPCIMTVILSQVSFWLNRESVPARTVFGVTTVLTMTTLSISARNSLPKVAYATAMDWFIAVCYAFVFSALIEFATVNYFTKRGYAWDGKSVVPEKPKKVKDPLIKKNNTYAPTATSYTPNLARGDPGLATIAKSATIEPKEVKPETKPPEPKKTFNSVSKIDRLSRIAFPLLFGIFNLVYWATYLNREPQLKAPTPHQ
Chain of 5-hydroxytryptamine receptor 7 (Homo sapiens) (P34969 whole entry): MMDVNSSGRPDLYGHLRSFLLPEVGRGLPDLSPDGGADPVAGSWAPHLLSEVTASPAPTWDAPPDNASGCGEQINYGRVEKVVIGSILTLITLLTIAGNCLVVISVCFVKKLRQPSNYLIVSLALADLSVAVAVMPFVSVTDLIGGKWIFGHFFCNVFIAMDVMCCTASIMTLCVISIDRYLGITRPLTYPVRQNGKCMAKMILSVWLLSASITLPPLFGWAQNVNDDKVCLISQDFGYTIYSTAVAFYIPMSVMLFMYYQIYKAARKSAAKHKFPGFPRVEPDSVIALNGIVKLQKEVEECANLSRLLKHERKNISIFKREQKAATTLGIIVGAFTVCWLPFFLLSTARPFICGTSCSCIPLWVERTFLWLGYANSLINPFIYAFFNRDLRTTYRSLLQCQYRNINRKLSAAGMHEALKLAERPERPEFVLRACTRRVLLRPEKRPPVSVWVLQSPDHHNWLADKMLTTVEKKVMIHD
Chain of D(1A) dopamine receptor (Homo sapiens) (P21728 whole entry): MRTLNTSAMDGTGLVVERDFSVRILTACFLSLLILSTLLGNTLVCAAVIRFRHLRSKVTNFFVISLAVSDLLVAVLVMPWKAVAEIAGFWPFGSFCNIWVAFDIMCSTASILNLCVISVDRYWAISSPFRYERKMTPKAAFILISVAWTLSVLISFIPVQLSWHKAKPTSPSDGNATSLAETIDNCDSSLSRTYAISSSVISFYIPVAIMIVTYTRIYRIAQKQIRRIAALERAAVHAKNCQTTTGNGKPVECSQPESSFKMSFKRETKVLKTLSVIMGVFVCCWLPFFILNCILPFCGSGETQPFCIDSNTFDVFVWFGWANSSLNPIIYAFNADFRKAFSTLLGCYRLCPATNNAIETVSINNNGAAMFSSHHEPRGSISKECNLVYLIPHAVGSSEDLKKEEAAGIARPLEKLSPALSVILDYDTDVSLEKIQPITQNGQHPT
Chain of 5-hydroxytryptamine receptor 4 (Homo sapiens) (Q13639 whole entry): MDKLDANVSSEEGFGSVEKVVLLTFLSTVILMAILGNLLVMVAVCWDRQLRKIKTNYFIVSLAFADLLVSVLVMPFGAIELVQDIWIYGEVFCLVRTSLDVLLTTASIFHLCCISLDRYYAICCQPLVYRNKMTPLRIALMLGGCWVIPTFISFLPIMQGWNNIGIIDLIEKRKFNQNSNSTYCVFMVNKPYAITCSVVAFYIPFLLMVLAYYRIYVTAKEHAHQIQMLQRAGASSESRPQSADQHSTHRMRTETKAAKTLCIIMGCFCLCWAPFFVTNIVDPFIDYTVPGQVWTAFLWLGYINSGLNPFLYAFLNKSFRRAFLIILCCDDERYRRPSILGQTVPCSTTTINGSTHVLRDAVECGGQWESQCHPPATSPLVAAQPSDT
Chain of Beta-2 adrenergic receptor (Homo sapiens) (P07550 whole entry, looked up): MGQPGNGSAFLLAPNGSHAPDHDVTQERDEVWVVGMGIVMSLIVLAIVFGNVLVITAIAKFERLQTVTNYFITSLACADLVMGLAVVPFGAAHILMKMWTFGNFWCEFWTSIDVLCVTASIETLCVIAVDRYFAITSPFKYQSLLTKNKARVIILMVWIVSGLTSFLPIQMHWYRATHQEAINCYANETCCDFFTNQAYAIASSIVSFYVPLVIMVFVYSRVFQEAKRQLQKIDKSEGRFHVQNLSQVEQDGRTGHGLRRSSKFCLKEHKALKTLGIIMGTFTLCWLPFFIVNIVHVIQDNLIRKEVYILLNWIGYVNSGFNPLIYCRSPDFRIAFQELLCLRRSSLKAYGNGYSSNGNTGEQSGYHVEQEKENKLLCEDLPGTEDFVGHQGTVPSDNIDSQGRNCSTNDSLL
Chain of Muscarinic acetylcholine receptor M4 (Homo sapiens) (P08173 whole entry): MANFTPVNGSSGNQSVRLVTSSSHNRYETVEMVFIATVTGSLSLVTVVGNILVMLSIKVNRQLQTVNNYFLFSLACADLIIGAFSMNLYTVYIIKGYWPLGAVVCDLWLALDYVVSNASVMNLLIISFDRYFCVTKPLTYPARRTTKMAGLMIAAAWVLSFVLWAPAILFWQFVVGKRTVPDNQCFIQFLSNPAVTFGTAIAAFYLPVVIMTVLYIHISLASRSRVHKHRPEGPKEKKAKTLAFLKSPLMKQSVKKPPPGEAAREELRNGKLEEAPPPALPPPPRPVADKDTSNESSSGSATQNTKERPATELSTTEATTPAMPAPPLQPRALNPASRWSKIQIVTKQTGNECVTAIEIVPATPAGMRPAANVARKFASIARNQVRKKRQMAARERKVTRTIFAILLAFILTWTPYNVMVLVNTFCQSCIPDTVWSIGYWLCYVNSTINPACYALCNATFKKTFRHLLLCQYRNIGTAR
Chain of Alpha-2B adrenergic receptor (Homo sapiens) (P18089 whole entry): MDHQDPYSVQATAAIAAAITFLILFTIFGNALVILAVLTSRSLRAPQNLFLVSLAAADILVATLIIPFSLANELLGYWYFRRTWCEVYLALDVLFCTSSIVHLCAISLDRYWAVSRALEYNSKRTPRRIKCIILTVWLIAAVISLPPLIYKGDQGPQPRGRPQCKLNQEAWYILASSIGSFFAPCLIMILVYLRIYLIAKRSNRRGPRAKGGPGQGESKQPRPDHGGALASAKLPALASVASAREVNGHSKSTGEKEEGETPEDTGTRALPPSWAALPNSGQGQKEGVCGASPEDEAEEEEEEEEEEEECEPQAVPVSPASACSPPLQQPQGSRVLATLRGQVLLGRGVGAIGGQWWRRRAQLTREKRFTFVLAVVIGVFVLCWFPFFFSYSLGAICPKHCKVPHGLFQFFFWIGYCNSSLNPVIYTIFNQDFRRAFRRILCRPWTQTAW
Chain of Neuronal acetylcholine receptor; alpha4/beta2 (P09483 whole entry): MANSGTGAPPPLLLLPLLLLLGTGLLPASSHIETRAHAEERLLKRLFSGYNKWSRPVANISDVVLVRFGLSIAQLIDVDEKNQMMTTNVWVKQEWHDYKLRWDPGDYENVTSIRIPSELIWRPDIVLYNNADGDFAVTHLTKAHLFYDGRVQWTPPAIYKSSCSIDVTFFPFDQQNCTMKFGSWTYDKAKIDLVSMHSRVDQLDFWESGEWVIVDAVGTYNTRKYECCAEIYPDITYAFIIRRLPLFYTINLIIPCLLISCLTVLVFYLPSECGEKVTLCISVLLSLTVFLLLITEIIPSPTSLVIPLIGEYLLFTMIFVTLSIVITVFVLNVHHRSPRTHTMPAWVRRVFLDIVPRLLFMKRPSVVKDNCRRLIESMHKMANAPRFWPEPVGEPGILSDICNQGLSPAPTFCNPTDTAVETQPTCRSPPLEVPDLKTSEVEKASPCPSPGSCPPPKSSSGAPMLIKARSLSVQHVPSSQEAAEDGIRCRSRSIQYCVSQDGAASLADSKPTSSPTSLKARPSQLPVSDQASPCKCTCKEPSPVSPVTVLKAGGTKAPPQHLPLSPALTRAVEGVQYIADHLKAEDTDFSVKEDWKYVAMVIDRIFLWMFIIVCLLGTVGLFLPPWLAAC
Chain of Neuronal acetylcholine receptor; alpha4/beta2 (P12390 whole entry): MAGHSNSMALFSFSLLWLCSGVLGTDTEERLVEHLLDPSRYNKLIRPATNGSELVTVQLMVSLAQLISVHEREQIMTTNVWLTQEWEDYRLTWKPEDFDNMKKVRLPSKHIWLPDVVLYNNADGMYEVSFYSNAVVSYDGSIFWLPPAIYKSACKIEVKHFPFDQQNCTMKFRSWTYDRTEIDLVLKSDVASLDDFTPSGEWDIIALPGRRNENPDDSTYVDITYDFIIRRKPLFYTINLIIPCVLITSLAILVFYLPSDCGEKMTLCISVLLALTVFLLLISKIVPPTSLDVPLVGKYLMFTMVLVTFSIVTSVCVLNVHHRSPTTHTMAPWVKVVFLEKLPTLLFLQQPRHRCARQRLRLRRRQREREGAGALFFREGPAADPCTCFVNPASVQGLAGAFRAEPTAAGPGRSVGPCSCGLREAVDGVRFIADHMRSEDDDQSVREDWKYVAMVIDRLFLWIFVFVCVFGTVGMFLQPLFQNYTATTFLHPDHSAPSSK
Chain of Histamine H2 receptor (Homo sapiens) (P25021 whole entry): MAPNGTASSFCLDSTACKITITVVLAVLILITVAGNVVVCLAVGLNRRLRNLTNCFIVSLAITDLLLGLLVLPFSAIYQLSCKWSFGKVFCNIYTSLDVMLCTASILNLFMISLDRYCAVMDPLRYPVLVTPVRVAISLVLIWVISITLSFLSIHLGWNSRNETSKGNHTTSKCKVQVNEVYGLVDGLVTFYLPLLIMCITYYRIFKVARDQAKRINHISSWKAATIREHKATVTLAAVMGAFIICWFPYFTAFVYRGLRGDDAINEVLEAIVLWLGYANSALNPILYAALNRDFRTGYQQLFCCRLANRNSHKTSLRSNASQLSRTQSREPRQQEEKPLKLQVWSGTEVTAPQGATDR
Chain of Cysteinyl leukotriene receptor 1 (Homo sapiens) (Q9Y271 whole entry): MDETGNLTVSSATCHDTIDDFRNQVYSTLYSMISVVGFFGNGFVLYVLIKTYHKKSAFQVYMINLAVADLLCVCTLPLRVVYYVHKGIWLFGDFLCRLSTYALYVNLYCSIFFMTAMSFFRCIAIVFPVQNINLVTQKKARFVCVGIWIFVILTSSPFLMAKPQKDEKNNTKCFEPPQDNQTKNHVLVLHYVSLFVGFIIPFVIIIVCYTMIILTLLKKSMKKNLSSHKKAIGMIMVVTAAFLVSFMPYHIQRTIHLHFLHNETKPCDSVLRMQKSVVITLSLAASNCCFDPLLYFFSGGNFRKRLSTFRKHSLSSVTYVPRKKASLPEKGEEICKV

Structure (SMILES): CN1C(=O)CC[C@H]1c1cccnc1 [COTININE]
- Ki [1]: 3 µM
- inhibition (Homo sapiens [2]): < 50%
- inhibition [3]: < 50%
- inhibition (Homo sapiens [4]): < 50%
- inhibition [5]: < 50%
- inhibition (Homo sapiens [6]): < 50%
- inhibition [7]: < 50%
- inhibition [8]: < 50%
- inhibition [9]: < 50%
- inhibition [10]: < 50%
- inhibition [11]: < 50%
- inhibition [12]: < 50%
- inhibition (Homo sapiens [13]): < 50%
- inhibition [14]: < 50%
- inhibition [15]: < 50%
- inhibition [16]: < 50%
- inhibition (Homo sapiens [17]): < 50%
- inhibition (Homo sapiens [18]): < 50%
- inhibition (Homo sapiens [19]): < 50%
- inhibition [20]: < 50%
- inhibition [21]: < 50%
- inhibition [22]: < 50%
- inhibition [23]: < 50%
- inhibition [24]: < 50%
- inhibition [25]: < 50%
- inhibition [26]: < 50%
- inhibition [27]: < 50%
